In patent publication US20250154152A1, “INHIBITORS OF NAEGLERIA FOWLERI” (Wisconsin Alumni Research Foundation, priority 2023, published 2025):

Tested on: N. fowleri strain Nf69 (ATCC 30215) trophozoites
Experiment: Determination of EC50 values against Naegleria fowleri (growth inhibition, CellTiter Glo, 48 h)
Assay type: cell-based
Settings: ATCC30215, N. fowleri Nf69 trophozoites, 48 h culture, 37° C., CellTiter Glo luminescence, read-out: EC50 uM against N. fowleri
Experimental: N. fowleri strain Nf69 (ATCC 30215) trophozoites were cultured axenically. Amoeba were seeded at […] in 100 μL of the indicated medium in white TC-treated 96-well plates (Thermo Scientific Nunc Microwell 136101). Cells were seeded into Nelson's Complete Media (NCM, 0.17% liver infusion broth (BD Difco, Franklin Lakes, NJ), 0.17% glucose, 0.012% sodium chloride, 0.0136% potassium phosphate monobasic, 0.0142% sodium phosphate dibasic, 0.0004% calcium chloride, 0.0002% magnesium sulfate, 10% heat-inactivated fetal bovine serum (FBS), 1% penicillin-streptomycin) at 37° C. in 96-well tissue culture plates. Vehicle or compound at concentrations initially ranging from 20 to 0.375 μM were added to cells, followed by culture for 48 h (37° C., 5% CO2). Plates were equilibrated to rt for 15 min and CellTiter Glo reagent was added followed by orbital shaking for 2 min. After an additional incubation (rt, 10 min), luminescence was scored on a BioTek Synergy H1 microplate reader. Luminescence values were used to calculate percent cell growth inhibition (based on controls) for each concentration of compound tested. Averages of triplicates were calculated and fit to dose-response curves for the determination of EC50 values, using Prism 9.0 (GraphPad Software, San Diego, CA). […] Other controls included media alone, cells and media, and vehicle and media. For very potent compounds, concentration of reagent in the dose-response assays were reduced to provide an appropriate range for EC50 value resolution.
Compounds of the present technology were tested for growth inhibition of N. fowleri per General Procedure 13, above.

| EC50 [µM] | Structure (SMILES) |
| --- | --- |
| > 10 | O=c1c2cc(Cl)c(Cl)cc2nc2n1CC[C@@H]1[C@@H]2CCCN1Cc1ccc(Cl)cc1Cl (racemic) [Compound 7v, (±)-(4aR,13bS)-10,11-dichloro-4-(2,4-dichlorobenzyl)-1,2,3,4,4a,5,6,13b-octahydro-8H-[1,6]naphthyridino[5,6-b]quinazolin-8-one] |
| > 10 | N#Cc1ccc(CN2CCC[C@@H]3c4nc5cc(Cl)c(Cl)cc5c(=O)n4CC[C@H]32)cc1 (racemic) [trans-7r, (±)-(4-(((4aR,13bS)-10,11-dichloro-8-oxo-2,3,5,6,8,13b-hexahydro-1H-[1,6]naphthyridino[5,6-b]quinazolin-4(4aH)-yl)methyl)benzonitrile] |
| 1 to 10 | Cn1c([C@@H]2CCN(CC3COC3)C2)nc2cc(Cl)c(Cl)cc2c1=O [Compound R-14j, (R)-6,7-dichloro-3-methyl-2-(1-(oxetan-3-ylmethyl)pyrrolidin-3-yl)quinazolin-4(3H)-one] |
| > 10 | COCCn1c([C@@H]2CCCN(CC3COC3)C2)nc2cc(Cl)c(Cl)cc2c1=O [Compound R-14k, (R)-6,7-dichloro-3-(2-methoxyethyl)-2-(1-(oxetan-3-ylmethyl)piperidin-3-yl)quinazolin-4(3H)-one] |
| 0.0001 to 0.1 | COc1cc2nc3n(c(=O)c2cc1Cl)CC[C@@H]1[C@@H]3CCCN1CC1CCC1 (racemic) [trans-7hh, (±)-(4aR,13bS)-10-chloro-4-(cyclobutylmethyl)-11-methoxy-1,2,3,4,4a,5,6,13b-octahydro-8H-[1,6]naphthyridino[5,6-b]quinazolin-8-one] |
| 1 to 10 | CN1CCC[C@@H]2c3nc4cc(-c5ccccc5)c(Cl)cc4c(=O)n3CC[C@H]21 (racemic) [trans-9b, (±)-(4aR,13bS)-10-chloro-4-methyl-11-phenyl-1,2,3,4,4a,5,6,13b-octahydro-8H-[1,6]naphthyridino[5,6-b]quinazolin-8-one] |
| > 10 | CC(C)N1CCC[C@H](c2nc3cc(Cl)c(Cl)cc3c(=O)n2C)C1 [Compound S-14a, (S)-6,7-dichloro-2-(1-isopropylpiperidin-3-yl)-3-methylquinazolin-4(3H)-one] |
| > 10 | COc1ccc2nc([C@@H]3CCCN(CC4COC4)C3)n(C)c(=O)c2c1 [Compound R-14s, (R)-6-methoxy-3-methyl-2-(1-(oxetan-3-ylmethyl)piperidin-3-yl)quinazolin-4(3H)-one] |
| 1 to 10 | CC(C)OCCN1CCC[C@@H](c2nc3cc(Cl)c(Cl)cc3c(=O)n2C)C1 [Compound R-14aa, (R)-6,7-dichloro-2-(1-(2-isopropoxyethyl)piperidin-3-yl)-3-methylquinazolin-4(3H)-one] |
| 0.1 to 1 | COc1cc2nc3n(c(=O)c2cc1Cl)CC[C@@H]1[C@@H]3CCCN1CCN1CCOCC1 (racemic) [trans-7mm, (±)-(4aR,13bS)-10-chloro-11-methoxy-4-(2-morpholinoethyl)-1,2,3,4,4a,5,6,13b-octahydro-8H-[1,6]naphthyridino[5,6-b]quinazolin-8-one] |
| 0.0001 to 0.1 | O=c1c2cc(Cl)c(Cl)cc2nc2n1CC[C@@H]1[C@@H]2CCCN1CC1COC1 (racemic) [trans-7m, (±)-(4aR,13bS)-10,11-dichloro-4-(oxetan-3-ylmethyl)-1,2,3,4,4a,5,6,13b-octahydro-8H-[1,6]naphthyridino[5,6-b]quinazolin-8-one] |
| 0.0001 to 0.1 | CC(=O)CN1CCC[C@@H]2c3nc4cc(Cl)c(Cl)cc4c(=O)n3CC[C@H]21 (racemic) [trans-7cc, (±)-(4aR,13bS)-10,11-dichloro-4-(2-oxopropyl)-1,2,3,4,4a,5,6,13b-octahydro-8H-[1,6]naphthyridino[5,6-b]quinazolin-8-one] |
| > 10 | CC(C)N1CCC[C@@H](c2nc3cc(Cl)c(Cl)cc3c(=O)n2C)C1 [Compound R-14b, (R)-6,7-dichloro-2-(1-isopropylpiperidin-3-yl)-3-methylquinazolin-4(3H)-one] |

| Structure (SMILES) | EC50 [µM] |
| --- | --- |
| CN1CCC[C@H]2c3nc4cnccc4c(=O)n3CC[C@H]21 (racemic) [cis-5p, (±)-(4aR,13bR)-4-methyl-1,2,3,4,4a,5,6,13b-octahydro-8H-pyrido[3′,4′:4,5]pyrimido[2,1-f][1,6]naphthyridin-8-one] | > 10 |
| CN1CCC[C@@H]2c3nc4ccc(C(F)(F)F)cc4c(=O)n3CC[C@H]21 (racemic) [trans-5j, (±)-(4aR,13bS)-4-methyl-10-(trifluoromethyl)-1,2,3,4,4a,5,6,13b-octahydro-8H-[1,6]naphthyridino[5,6-b]quinazolin-8-one] | 1 to 10 |
| CN1CCC[C@H]2c3nc4cc(Cl)ccc4c(=O)n3CC[C@H]21 (racemic) [cis-5k, (±)-(4aR,13bR)-11-chloro-4-methyl-1,2,3,4,4a,5,6,13b-octahydro-8H-[1,6]naphthyridino[5,6-b]quinazolin-8-one] | > 10 |
| CN1CCO[C@@H]2c3nc4ccc(Cl)cc4c(=O)n3CC[C@H]21 (racemic) [trans-5w, (±)-(4aR,13bS)-10-chloro-4-methyl-3,4,4a,5,6,13b-hexahydro-[1,4]oxazino[2′,3′:3,4]pyrido[2,1-b]quinazolin-8(2H)-one] | > 10 |
| CN1CCO[C@@H]2c3nc4ccc(C(F)(F)F)cc4c(=O)n3CC[C@H]21 (racemic) [trans-5x, (±)-(4aR,13bS)-4-methyl-10-(trifluoromethyl)-3,4,4a,5,6,13b-hexahydro-[1,4]oxazino[2′,3′:3,4]pyrido[2,1-b]quinazolin-8(2H)-one] | > 10 |
| CN1CCO[C@H]2c3nc4ccc(Cl)cc4c(=O)n3CC[C@H]21 (racemic) [cis-5w, (±)-(4aR,13bR)-10-chloro-4-methyl-3,4,4a,5,6,13b-hexahydro-[1,4]oxazino[2′,3′:3,4]pyrido[2,1-b]quinazolin-8(2H)-one] | > 10 |
| CN1CCC[C@H]2c3nc4ccc(Br)cc4c(=O)n3CC[C@H]21 (racemic) [cis-5e, (±)-(4aR,13bR)-10-bromo-4-methyl-1,2,3,4,4a,5,6,13b-octahydro-8H-[1,6]naphthyridino[5,6-b]quinazolin-8-one] | 0.1 to 1 |
| COc1cc2nc3n(c(=O)c2cc1OC)CC[C@@H]1[C@H]3CCCN1C (racemic) [cis-5r, (±)-(4aR,13bR)-10,11-dimethoxy-4-methyl-1,2,3,4,4a,5,6,13b-octahydro-8H-[1,6]naphthyridino[5,6-b]quinazolin-8-one] | > 10 |
| CN1CCC[C@H]2c3nc4ccc(C(F)(F)F)cc4c(=O)n3CC[C@H]21 (racemic) [cis-5j, (±)-(4aR,13bR)-4-methyl-10-(trifluoromethyl)-1,2,3,4,4a,5,6,13b-octahydro-8H-[1,6]naphthyridino[5,6-b]quinazolin-8-one] | 0.1 to 1 |
| CN1CCC[C@@H]2c3nc4ccc(Cl)cc4c(=O)n3CC[C@H]21 (racemic) [trans-5d, (±)-(4aR,13bS)-10-chloro-4-methyl-1,2,3,4,4a,5,6,13b-octahydro-8H-[1,6]naphthyridino[5,6-b]quinazolin-8-one] | 0.1 to 1 |
| CN1CCC[C@H]2c3nc4cc(C(F)(F)F)ccc4c(=O)n3CC[C@H]21 (racemic) [cis-5n, (±)-(4aR,13bR)-4-methyl-11-(trifluoromethyl)-1,2,3,4,4a,5,6,13b-octahydro-8H-[1,6]naphthyridino[5,6-b]quinazolin-8-one] | 1 to 10 |
| Cc1ccc2nc3n(c(=O)c2c1)CC[C@@H]1[C@H]3CCCN1C (racemic) [cis-5h, (±)-(4aR,13bR)-4,10-dimethyl-1,2,3,4,4a,5,6,13b-octahydro-8H-[1,6]naphthyridino[5,6-b]quinazolin-8-one] | 1 to 10 |
